# In patent US20250026733A1, “DEUTERATED ANALOGS OF PYROLE INHIBITORS OF ERK, SYNTHESIS THEREOF AND INTERMEDIATES THERETO” (BIOMED VALLEY DISCOVERIES, INC., priority 2022, published 2025):
# Read-outs that look alike come from different tables or passages of the source.
# Columns and labels:
# [1] = test system: phospho-ERK1/2 to total ERK1/2 in A375 cells; assay: A375 pERK/ERK dose response study (MSD); type: cell-based; conditions: Homo sapiens, A-375, ratio of phospho-ERK1/2 to total ERK1/2
# Protocol: A375 pERK/ERK Dose Response Study:
# Briefly, A375 cells were plated at 30,000 cells/well in 2×96 well plates, allowed to recover overnight, washed and fed fresh media the next day then treated with a dose response of the selected compounds. Following the determined pretreatment time with the compounds at 37° C./5% CO2, the media was aspirated, and cells lysed with cold, complete MESO Scale Discovery (MSD) lysis buffer. pERK and total ERK1/2 levels were measured using MESO Scale Discover Phospho(Thr202/Tyr204; Thr185/Tyr187)/Total ERK1/2 kits. The protocol and all reagents were provided in the kit. All wells were blocked with 150 μl Blocking Solution for one hour. […] of lysis buffer was added per well and incubated overnight at 4° C. Following the overnight incubation, the wells were washed three times with Tris Wash buffer, then […] of 1× Detection Antibody was added per well and incubated at room temperature for one hour with vigorous shaking. All wells were then washed three times with Tris Wash Buffer before 150 μl of 1× Read Buffer was added per well and the plates read using the MSD Sector Imager. Data were calculated as a ratio of phospho-ERK1/2 to total ERK1/2 to allow for normalization of the samples.
# [2] = Half-life determination in human liver microsomes; type: in vitro ADME; conditions: for half-life at 1 μM: human, NADPH; for Half-life, % change relative to ulixertinib: mean
# Protocol: Human microsomes from a pool of 10 donors was obtained from a commercial source. Microsomes prepared in potassium phosphate buffer were spiked with ulixertinib, Formula 18, Formula 19, and Formula 21 individually in replicates of six at a final concentration of 1 μM. NADPH was used to initiate the experiment; a control of minus NADPH (minus cofactor) was also run in parallel to the human liver microsome stability. After spiking with test article, microsome replicates were placed in a 37° C. incubator with the following time course: 0, 5, 10, 15, 20, 30, 45 and 60 minutes. Samples were extracted with a protein precipitation quench consisting of ice cold acetonitrile containing internal standard (tolbutamide). Samples were analyzed for ulixertinib, Formula 18, Formula 19, and Formula 21. The half-lives of ulixertinib, Formula 18, Formula 19, and Formula 21 were characterized by the […] to determine the elimination rate (ke) and using the formula described below.
# [formula] • ke (elimination rate): the slope of ln(percent remaining) vs time (in minutes)
# CYP1A2 = biological target: T1, CYP1A2 (Homo sapiens, UniProt P05177); assay: In-vitro CYP inhibition study, CYP1A2; type: in vitro ADME; conditions: human liver microsomes, substrate Phenacetin (90 μM)
# T1 construct: from tissue; host or cells: human liver microsomes, mixed-gender pool of 200
# T1 sequence (P05177 1-516): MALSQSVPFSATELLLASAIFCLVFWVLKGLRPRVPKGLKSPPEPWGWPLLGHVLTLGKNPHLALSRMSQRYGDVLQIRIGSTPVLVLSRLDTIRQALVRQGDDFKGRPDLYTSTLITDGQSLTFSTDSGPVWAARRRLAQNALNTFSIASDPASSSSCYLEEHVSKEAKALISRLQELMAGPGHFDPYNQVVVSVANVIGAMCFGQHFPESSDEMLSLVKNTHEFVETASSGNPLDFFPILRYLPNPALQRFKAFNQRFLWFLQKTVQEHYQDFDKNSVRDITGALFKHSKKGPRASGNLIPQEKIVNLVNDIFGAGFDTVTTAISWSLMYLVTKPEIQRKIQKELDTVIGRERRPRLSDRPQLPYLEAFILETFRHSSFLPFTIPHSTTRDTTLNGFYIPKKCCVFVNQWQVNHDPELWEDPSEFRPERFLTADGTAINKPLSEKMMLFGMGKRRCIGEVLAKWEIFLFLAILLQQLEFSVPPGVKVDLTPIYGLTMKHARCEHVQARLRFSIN
# Protocol: (§1) Incubations were conducted using a cocktail of seven prototypical CYP substrates to ascertain the potential of each test article to inhibit the metabolism of concomitantly administered drugs. A mixed-gender pool of 200 human liver microsomal samples was used for this study. Incubations were conducted at approximately 37° C. in 200 μL incubation mixtures (pH 7.4) containing water, potassium phosphate buffer (50 mM), MgCl2 (3 mM), EDTA (1 mM), an NADPH regenerating system (NADP [1 mM], glucose 6 phosphate [5 mM], glucose 6 phosphate dehydrogenase [1 Unit/mL]), and probe substrate (i.e., a seven substrate cocktail) at the final concentrations indicated in Table 9. Reactions were initiated by the addition of NADPH-regenerating system and were automatically terminated at approximately 5 minutes by the addition of internal standard mixed in stop reagent, acetonitrile. The samples were centrifuged at 920×g for 10 minutes at 10° C. The supernatant fractions were analyzed by LC-MS/MS. To examine its ability to act as a time-dependent inhibitor of CYP enzymes, each test article (at the same concentrations used to evaluate direct inhibition, (i.e. 0, 0.02, 0.06, 0.2, 0.6, 2, 6, 20 μM) was pre-incubated at 37±2° C. with NADPH-fortified human liver microsomes for approximately 30 minutes. The pre-incubations were initiated by the addition of NADPH-regenerating system. After 30 min, probe substrate incubations were initiated by the addition of probe substrate cocktail. Incubations were terminated and samples were analyzed by LC-MS/MS. When inhibition was observed, the data were processed with a LIMS for the determination of IC50 values by utilizing the Levenberg-Marquardt algorithm to perform non-linear regression fitting of the data to the following 4-parameter sigmoidal-logistic IC50 equation:
# (§2) As percent of control values are utilized, the minimum value (Min) is set to zero and the maximum value (Max) is set to 100 (or other values, as appropriate). The LIMS calculates an IC50 value only when it lies within the concentration range of the inhibitor studied. Therefore, when an IC50 value falls outside the concentration range studied, the IC50 values are reported to be greater than the highest concentration of the test article evaluated.
# CYP2D6 = biological target: T2, CYP2D6 (Homo sapiens, UniProt P10635); assay: In-vitro CYP inhibition study, CYP2D6; type: in vitro ADME; conditions: human liver microsomes, substrate Dextramethorphan (10 μM)
# T2 construct: from tissue; host or cells: human liver microsomes, mixed-gender pool of 200
# T2 sequence (P10635 whole entry): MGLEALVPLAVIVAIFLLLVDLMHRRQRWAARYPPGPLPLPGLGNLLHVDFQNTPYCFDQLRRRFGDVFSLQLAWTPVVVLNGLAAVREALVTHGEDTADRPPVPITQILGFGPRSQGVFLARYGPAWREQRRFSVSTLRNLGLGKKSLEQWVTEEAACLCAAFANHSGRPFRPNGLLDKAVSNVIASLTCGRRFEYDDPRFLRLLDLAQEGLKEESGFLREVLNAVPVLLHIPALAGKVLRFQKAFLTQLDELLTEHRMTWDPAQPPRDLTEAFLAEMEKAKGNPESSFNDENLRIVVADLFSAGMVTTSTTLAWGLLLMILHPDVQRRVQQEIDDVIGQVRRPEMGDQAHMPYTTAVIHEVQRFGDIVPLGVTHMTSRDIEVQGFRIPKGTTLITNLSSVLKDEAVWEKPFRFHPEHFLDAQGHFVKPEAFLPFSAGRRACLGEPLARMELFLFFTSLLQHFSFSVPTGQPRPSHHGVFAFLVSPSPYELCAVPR
# Protocol: as §1, §2
# CYP3A4 mRNA expression = assay: In-vitro CYP induction study, CYP3A4 mRNA in cultured human hepatocytes; conditions: 20 μM, approximately 24 h
# Protocol: A single preparation of characterized cryopreserved human hepatocytes isolated from non-transplantable human livers was treated in this study. Triplicate wells for each of the cultures were treated in 48-well plates with supplemented MCM (37±2° C.) containing 0.1% v/v DMSO (solvent control), one of three concentrations of each test article (1, 10 and 20 μM) or positive control CYP enzyme inducers omeprazole (50 μM), phenobarbital (1000 μM) or rifampin (20 μM). The cultures were incubated in a humidified culture chamber (37±2° C. at 95% relative humidity, 95/5% air/CO2). Approximately 24 h after treatment, hepatocytes were lysed in Buffer RLT reagent containing β-mercaptoethanol (100:1). The medium was aspirated, and Buffer RLT was added to each well. The cell lysates were prepared by repeated pipetting and shaking. Total RNA was isolated using the RNeasy Mini Kit. RNA quality and concentration were determined by measuring absorbance at 260 and 280 nm on a plate reader. Single-stranded cDNA was prepared from RNA with the RT Master Mix. The RT Master Mix comprises 10×RT buffer, 25× deoxyNTPs, 10× Random primers, RNase Inhibitor (20 U/μL), MultiScribe reverse transcriptase (50 U/μL) and RNase-free water. The RT Master Mix was added to each RNA sample to complete the components of the reaction. No template controls (NTCs) were included in the analysis. For the NTC reactions, RNase-free water was added in place of the RNA sample. The prepared cDNA samples were stored at −20±5° C. following analysis by qRT-PCR. Each PCR was performed in quadruplicate. A Primer Mix was prepared for each Gene Expression assay. A typical Primer Mix contained TaqMan Fast Advanced Master Mix (1×), Gene Expression Assay (1×, 900 nM forward and reverse primers) and RNase-free water. The Reaction Mix was prepared by adding the Primer Mix to cDNA. A percentage of samples (no less than 10%) included NAC (no amplification control) samples. […] Reactions were analyzed on a PCR sequence detection system. The relative quantity of the target cDNA compared with that of the control cDNA (GAPDH) was determined by the ΔΔCt method. Relative quantitation measures the change in mRNA expression in a test sample relative to that in a control sample (e.g., DMSO). This method assumes that the efficiency of the target amplification and the efficiency of the endogenous control amplification are approximately equal.
# [3] = Rep 1, read-out: Half-life, t½, Rep 1
# [4] = Rep 2, read-out: Half-life, t½, Rep 2
# [5] = Rep 3, read-out: Half-life, t½, Rep 3
# [6] = Rep 4, read-out: Half-life, t½, Rep 4
# [7] = Rep 5, read-out: Half-life, t½, Rep 5
# [8] = Rep 6, read-out: Half-life, t½, Rep 6
# [9] = six replicates, read-out: Half-life, t½, Mean ± SD
Structure (SMILES),IC50 [1] [nM],"half-life at 1 μM [2, 3] [min]","half-life at 1 μM [2, 4] [min]","half-life at 1 μM [2, 5] [min]","half-life at 1 μM [2, 6] [min]","half-life at 1 μM [2, 7] [min]","half-life at 1 μM [2, 8] [min]","half-life at 1 μM [2, 9] [min]",IC50 (CYP1A2; preincubation 0 min) [µM],IC50 (CYP1A2; preincubation 30 min) [µM],IC50 (CYP2D6; preincubation 0 min) [µM],IC50 (CYP2D6; preincubation 30 min) [µM],Fold Change in mRNA Expression of CYP3A4 (CYP3A4 mRNA expression) [fold],longer half-life than ulixertinib ([2]; Table 5) [%],"Half-life, % change relative to ulixertinib [2]",shorter half-life compared to ulixertinib ([2]; Table 5) [%],"IC50 at 5 min (CYP2D6; both sexes, human, pH 7.4, probe Dextramethorphan (10 μM), preincubation 0 min) [µM]"
"CC(C)Nc1cc(-c2c[nH]c(C(=O)N[C@H](CO)c3cccc(Cl)c3)c2)c(Cl)cn1 [Ulixertinib, reference compound]",58,49.2,51.2,50.3,46.2,48.5,48.1,48.9 ± 1.8,> 20,13,> 20,18,8.26,,,,
Cl.[2H]C(C)(C)Nc1cc(-c2c[nH]c(C(=O)N[C@H](CO)c3cccc(Cl)c3)c2)c(Cl)cn1 [Formula 21A],,,,,,,,,> 20,> 20,> 20,> 20,6.86,,,,
"[2H]C([2H])([2H])C([2H])(Nc1cc(-c2c[nH]c(C(=O)N[C@H](CO)c3cccc(Cl)c3)c2)c(Cl)cn1)C([2H])([2H])[2H] [Formula 18, 4-(5-chloro-2-((propan-2-yl-d7)amino)pyridin-4-yl)-N-(1-(3-chlorophenyl)-2-hydroxyethyl)-1H-pyrrole-2-carboxamide]",70,59.2,58.7,60.6,55.8,57.5,62,59 ± 2.2,> 20,17,> 20,19,7.06,21,(+21%),,
"[2H]C([2H])([2H])C(Nc1cc(-c2c[nH]c(C(=O)N[C@H](CO)c3cccc(Cl)c3)c2)c(Cl)cn1)C([2H])([2H])[2H] [Formula 19, 4-(5-chloro-2-((propan-2-yl-1,1,1,3,3,3-d6)amino)pyridin-4-yl)-N-(1-(3-chiorophenyl)-2-hydroxyethyl)-1H-pyrrole-2-carboxamide]",,43.4,45.2,46.1,44.9,47.8,44.9,45.4 ± 1.5,> 20,19,,> 20,11.7,,(−7%),7,20
